Reference: patent US8722849B2, “Polypeptides” (Novo Nordisk A/S, priority 2011, dated 2014)
≈ marks a conversion by molar mass, not a printed value. Where two headings read alike, the source gives them in different places. Starred links: 1 amine or outer side, 2 acyl side, 3 side chain; linkers in the order of their positions; H or OH if unused. Positions of bridges follow the written chain, without caps; N, C: chain ends. Residues, ends and D or L forms follow the SMILES beside them. *: point of attachment. C20 diacid = O=C(O)CCCCCCCCCCCCCCCCCCC(=O)*; γGlu = O=C(O)[C@H](CCC(=O)[*:2])N[*:1]

What was measured:
[1] = biological target: T1, human calcitonin receptor (Homo sapiens, UniProt P30988); test: Assay (II)a functional CRE-luciferase assay, human calcitonin receptor; assay type: cell-based; details: Table 7; human calcitonin (CTa) receptor
T1 construct: expressed in transfected cells; host or cells: BHK570
T1 sequence (P30988 25-474): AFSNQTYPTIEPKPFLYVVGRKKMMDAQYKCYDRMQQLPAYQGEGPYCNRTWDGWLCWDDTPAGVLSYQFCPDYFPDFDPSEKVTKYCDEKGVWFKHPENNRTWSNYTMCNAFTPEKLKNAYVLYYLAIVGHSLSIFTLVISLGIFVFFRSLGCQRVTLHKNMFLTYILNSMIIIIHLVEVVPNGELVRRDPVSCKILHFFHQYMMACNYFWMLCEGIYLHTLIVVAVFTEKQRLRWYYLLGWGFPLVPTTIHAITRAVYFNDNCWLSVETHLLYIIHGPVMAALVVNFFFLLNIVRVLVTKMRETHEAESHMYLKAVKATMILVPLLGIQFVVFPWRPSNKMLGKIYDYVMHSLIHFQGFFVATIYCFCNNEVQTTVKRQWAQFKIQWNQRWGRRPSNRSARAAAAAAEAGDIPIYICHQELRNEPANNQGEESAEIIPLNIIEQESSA

[2] = biological target: T2, human amylin receptor (amylin 3(a) receptor: human calcitonin receptor + RAMP-3) (Homo sapiens, UniProt O60896+P30988); test: Assay (II)a functional CRE-luciferase assay, human amylin receptor; assay type: cell-based; details: Table 2; BHK amylin 3(a)-receptor/CRE-luc cells
T2 construct: expressed in transfected cells; host or cells: BHK570
T2 sequence (P30988 25-474): T1 sequence (P30988 25-474)
T2 sequence (O60896 24-148 partner): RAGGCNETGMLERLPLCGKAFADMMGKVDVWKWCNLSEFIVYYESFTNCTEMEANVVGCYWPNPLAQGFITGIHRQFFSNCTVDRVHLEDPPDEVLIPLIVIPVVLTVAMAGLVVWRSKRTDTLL

[3] = biological target: T3, rat amylin 3(a) receptor (rat calcitonin(a) receptor + rat RAMP3) (Rattus norvegicus, UniProt P32214+Q9JJ73); test: Assay (II)b functional cAMP FlashPlate assay, rat amylin receptor; assay type: cell-based; details: Table 11
T3 construct: expressed in transfected cells; host or cells: BHK tk'ts 13
T3 sequence (P32214 25-479 isoform P32214-2 limits assumed): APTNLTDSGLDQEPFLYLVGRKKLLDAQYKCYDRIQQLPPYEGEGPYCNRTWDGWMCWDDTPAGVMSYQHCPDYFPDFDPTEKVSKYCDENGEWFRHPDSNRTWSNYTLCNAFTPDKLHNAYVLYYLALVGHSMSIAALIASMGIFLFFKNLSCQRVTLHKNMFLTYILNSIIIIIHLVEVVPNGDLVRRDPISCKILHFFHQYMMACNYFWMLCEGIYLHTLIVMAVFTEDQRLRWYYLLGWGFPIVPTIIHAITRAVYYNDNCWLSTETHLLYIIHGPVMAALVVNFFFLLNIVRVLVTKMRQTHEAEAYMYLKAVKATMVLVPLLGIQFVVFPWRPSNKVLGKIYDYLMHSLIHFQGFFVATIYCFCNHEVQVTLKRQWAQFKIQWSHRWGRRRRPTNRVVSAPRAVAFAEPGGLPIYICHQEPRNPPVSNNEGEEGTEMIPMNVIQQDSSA
T3 sequence (Q9JJ73 23-147 partner): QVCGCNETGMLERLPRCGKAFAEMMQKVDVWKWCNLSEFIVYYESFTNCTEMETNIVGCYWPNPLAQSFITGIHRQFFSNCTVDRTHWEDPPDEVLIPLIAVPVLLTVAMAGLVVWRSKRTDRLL
In short: (§1)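 BHK tk'ts 13 cells transiently transfected with rat calcitonin(a) receptor, alone or with rat RAMP3 (amylin 3(a)), were stimulated 24 hours later with sample for 30 min in buffer containing IBMX. cAMP measured by competitive radioactive FlashPlate assay, scintillation read after 3 h detection incubation.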

[4] = Assay (IV) determination of solubility; assay type: physicochemical
In short: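 Polypeptide in water (~500 nmol/ml) mixed 1:1 with 100 mM glycylglycine (pH 3.0–5.0) or bistrispropane (pH 6.0–8.0) buffers. Held 18 hours at room temperature, then centrifuged. Polypeptide remaining in solution quantified by HPLC.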

[5] = biological target: T4, rat calcitonin (a) receptor (Rattus norvegicus, UniProt P32214); test: Assay (II)b functional cAMP FlashPlate assay, rat calcitonin receptor; assay type: cell-based; details: Table 11; read-out: CTa receptor rat EC50
T4 construct: expressed in transfected cells; host or cells: BHK tk'ts 13
T4 sequence (P32214 25-479 isoform P32214-2 limits assumed): T3 sequence (P32214 25-479 isoform P32214-2 limits assumed)
In short: as §1

[6] = bistrispropane buffer, pH 6, pH 6.0, read-out: Solubility pH 6.0
[7] = bistrispropane buffer, pH 6.5, pH 6.5, read-out: Solubility pH 6.5
[8] = bistrispropane buffer, pH 7, pH 7.0, 18 hours at room temperature, Table 3, read-out: Solubility pH 7.0
[9] = bistrispropane buffer, pH 7, pH 7.0, read-out: Solubility pH 7.0
[10] = bistrispropane buffer, pH 7.5, pH 7.5, read-out: Solubility pH 7.5
[11] = bistrispropane buffer, pH 8, pH 8.0, read-out: Solubility pH 8.0
[12] = glycylglycine buffer, pH 3, pH 3.0, read-out: Solubility pH 3.0
[13] = glycylglycine buffer, pH 4, pH 4.0, 18 hours at room temperature, Table 2, read-out: Solubility pH 4.0
[14] = glycylglycine buffer, pH 4, pH 4.0, read-out: Solubility pH 4.0
[15] = glycylglycine buffer, pH 5, pH 5.0, read-out: Solubility pH 5.0
[16] = bistrispropane buffer, pH 7, pH 7.0, Table 8, read-out: Solubility pH 7.0
[17] = bistrispropane buffer, pH 7, pH 7.0, Table 9, read-out: Solubility pH 7.0
[18] = bistrispropane buffer, pH 7.5, pH 7.5, Table 9, read-out: Solubility pH 7.5

Row | EC50 [1] [nM] | EC50 [2] [nM] | EC50 [3] [nM] | solubility at 18 h [4, 6] [µM] | solubility at 18 h [4, 7] [µM] | solubility at 18 h [4, 8] [µM] | solubility at 18 h [4, 9] [µM] | solubility at 18 h [4, 10] [µM] | solubility at 18 h [4, 11] [µM] | solubility at 18 h [4, 12] [µM] | solubility at 18 h [4, 13] [µM] | solubility at 18 h [4, 14] [µM] | solubility at 18 h [4, 15] [µM] | EC50 [5] [nM] | solubility at 18 h [4, 16] [µM] | solubility at 18 h [4, 17] [µM] | solubility at 18 h [4, 18] [µM] | SMILES
1 | 0.126 | 0.131 | 0.187 | > 200 | 153 (≈ 683 µg/mL) | 191 (≈ 853 µg/mL) | 191 (≈ 853 µg/mL) | > 200 | > 200 | > 200 | > 200 | > 200 | > 200 | 1.17 | – | – | – | CC[C@H](C)[C@H](NC(=O)[C@@H]1CCCN1C(=O)CNC(=O)[C@H](Cc1ccccc1)NC(=O)[C@H](CC(N)=O)NC(=O)[C@H](CC(N)=O)NC(=O)[C@H](CO)NC(=O)[C@H](CO)NC(=O)[C@H](Cc1c[nH]cn1)NC(=O)[C@H](Cc1c[nH]cn1)NC(=O)[C@H](CC(C)C)NC(=O)[C@H](Cc1ccccc1)NC(=O)[C@H](CCC(=O)O)NC(=O)[C@H](C)NC(=O)[C@H](CC(C)C)NC(=O)[C@H](CCCNC(=N)N)NC(=O)[C@H](CCC(N)=O)NC(=O)[C@@H](NC(=O)[C@H](C)NC(=O)[C@@H]1CSSC[C@H](NC(=O)[C@H](Cc2c[nH]cn2)NC(=O)CC[C@H](NC(=O)CCCCCCCCCCCCCCCCCCC(=O)O)C(=O)O)C(=O)N[C@@H](CC(N)=O)C(=O)N[C@@H]([C@@H](C)O)C(=O)N[C@@H](C)C(=O)N[C@@H]([C@@H](C)O)C(=O)N1)[C@@H](C)O)C(=O)N[C@@H](CC(C)C)C(=O)N1CCC[C@H]1C(=O)N1CCC[C@H]1C(=O)N[C@H](C(=O)N[C@@H](CC(N)=O)C(=O)N[C@H](C(=O)NCC(=O)N[C@@H](CO)C(=O)N[C@@H](CC(N)=O)C(=O)N[C@H](C(=O)N[C@@H](Cc1ccc(O)cc1)C(N)=O)[C@@H](C)O)C(C)C)[C@@H](C)O [Example 18, N-alpha-[(S)-4-Carboxy-4-(19-carboxynonadecanoylamino)butyryl]-[His1,Glu14,His17]-pramlintide] ({C20 diacid-γGlu}-HCNTATCATQRLAEFLHHSSNNFGPILPPTNVGSNTY-NH2; disulfide 2-7 (inferred); C-terminus assumed)
2 | 0.0475 | 0.0325 | 0.217 | > 200 | > 200 | > 200 | > 200 | > 200 | > 200 | > 200 | > 200 | > 200 | > 200 | 0.128 | > 200 | > 200 | > 200 | CC[C@H](C)[C@H](NC(=O)[C@@H]1CCCN1C(=O)CNC(=O)[C@H](Cc1ccccc1)NC(=O)[C@H](CC(N)=O)NC(=O)[C@H](CC(N)=O)NC(=O)[C@H](CO)NC(=O)[C@H](CO)NC(=O)[C@H](Cc1c[nH]cn1)NC(=O)[C@H](CCCNC(=N)N)NC(=O)[C@H](CC(C)C)NC(=O)[C@H](Cc1ccccc1)NC(=O)[C@H](CCC(=O)O)NC(=O)[C@H](C)NC(=O)[C@H](CC(C)C)NC(=O)[C@H](CCCNC(=N)N)NC(=O)[C@H](CCC(N)=O)NC(=O)[C@@H](NC(=O)[C@H](C)NC(=O)[C@@H]1CSSC[C@H](NC(=O)[C@H](Cc2c[nH]cn2)NC(=O)CC[C@H](NC(=O)CCCCCCCCCCCCCCCCCCC(=O)O)C(=O)O)C(=O)N[C@@H](CC(N)=O)C(=O)N[C@@H]([C@@H](C)O)C(=O)N[C@@H](C)C(=O)N[C@@H]([C@@H](C)O)C(=O)N1)[C@@H](C)O)C(=O)N[C@@H](CC(C)C)C(=O)N1CCC[C@H]1C(=O)N1CCC[C@H]1C(=O)N[C@H](C(=O)N[C@@H](CC(N)=O)C(=O)N[C@H](C(=O)NCC(=O)N[C@@H](CO)C(=O)N[C@@H](CC(N)=O)C(=O)N[C@H](C(=O)N1CCC[C@H]1C(N)=O)[C@@H](C)O)C(C)C)[C@@H](C)O [Example 90, N-alpha-[(S)-4-Carboxy-4-(19-carboxynonadecanoylamino)butyryl]-[His1,Glu14,Arg17,Pro37]-pramlintide] ({C20 diacid-γGlu}-HCNTATCATQRLAEFLRHSSNNFGPILPPTNVGSNTP-NH2; disulfide 2-7 (inferred); C-terminus assumed)
3 | – | – | 0.348 | > 200 | > 200 | > 200 | > 200 | > 200 | > 200 | > 200 | > 200 | > 200 | > 200 | 0.287 | > 200 | > 200 | > 200 | CC[C@H](C)[C@H](NC(=O)[C@@H]1CCCN1C(=O)CNC(=O)[C@H](Cc1ccccc1)NC(=O)[C@H](CC(N)=O)NC(=O)[C@H](CC(N)=O)NC(=O)[C@H](CO)NC(=O)[C@H](CO)NC(=O)[C@H](Cc1c[nH]cn1)NC(=O)[C@H](CCCNC(=N)N)NC(=O)[C@H](CC(C)C)NC(=O)[C@H](Cc1ccccc1)NC(=O)[C@H](CCC(=O)O)NC(=O)[C@H](C)NC(=O)[C@H](CC(C)C)NC(=O)[C@H](CCCNC(=N)N)NC(=O)[C@H](CCC(N)=O)NC(=O)[C@@H](NC(=O)[C@H](C)NC(=O)[C@@H]1CSSC[C@H](NC(=O)[C@H](CCCCN)NC(=O)CC[C@H](NC(=O)CCCCCCCCCCCCCCCCCCC(=O)O)C(=O)O)C(=O)N[C@@H](CC(N)=O)C(=O)N[C@@H]([C@@H](C)O)C(=O)N[C@@H](C)C(=O)N[C@@H]([C@@H](C)O)C(=O)N1)[C@@H](C)O)C(=O)N[C@@H](CC(C)C)C(=O)N1CCC[C@H]1C(=O)N1CCC[C@H]1C(=O)N[C@H](C(=O)N[C@@H](CC(N)=O)C(=O)N[C@H](C(=O)NCC(=O)N[C@@H](CO)C(=O)N[C@@H](CC(N)=O)C(=O)N[C@H](C(=O)N1CCC[C@H]1C(N)=O)[C@@H](C)O)C(C)C)[C@@H](C)O [Example 53, N-alpha-[(S)-4-Carboxy-4-(19-carboxynonadecanoylamino)butyryl]-[Glu14,Arg17,Pro37]-pramlintide]
